Test results: the NIST ThermoML archive (doi:10.1016/j.fluid.2012.11.030)
Numbers after ± are expanded uncertainties.

Legend:
[1] = Crystal; DTA
[2] = Molar enthalpy of transition or fusion; conditions: Crystal; DSC

Compound | Normal melting temperature [1] [°C] | Molar enthalpy of transition or fusion [2] [kcal/mol]
CCCCCCCCCCCC(=O)OCC [ethyl dodecanoate] | 0.1 ± 0.7 | 9.52 ± 0.263
CCCCCCCC/C=C\CCCCCCCC(=O)OCC [ethyl (Z)-9-octadeceneoate] | -19.06 ± 0.7 | 11.4 ± 0.311
CCCCCCCCCCCCCCCC(=O)OCC [ethyl hexadecanoate] | 25.08 ± 0.7 | 13.3 ± 0.359
